Measured values from PMC7994892, “The M. tuberculosis Rv1523 Methyltransferase Promotes Drug Resistance Through Methylation-Mediated Cell Wall Remodeling and Modulates Macrophages Immune Responses” (Frontiers in Cellular and Infection Microbiology, 2021).

Biological target: Rv1523 MTase (Mycobacterium tuberculosis, UniProt Q50584)
Sequence (Q50584 entry or part of it): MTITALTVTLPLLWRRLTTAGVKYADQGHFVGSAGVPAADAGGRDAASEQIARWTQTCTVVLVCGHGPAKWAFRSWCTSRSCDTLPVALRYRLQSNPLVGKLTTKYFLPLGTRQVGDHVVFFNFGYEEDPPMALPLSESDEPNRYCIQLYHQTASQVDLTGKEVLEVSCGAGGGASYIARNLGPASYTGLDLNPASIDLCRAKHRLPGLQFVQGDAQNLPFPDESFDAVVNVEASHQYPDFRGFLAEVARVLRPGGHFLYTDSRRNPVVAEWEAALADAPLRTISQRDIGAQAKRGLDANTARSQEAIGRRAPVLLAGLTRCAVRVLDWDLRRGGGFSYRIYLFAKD

C[S+](CC[C@H](N)C(=O)O)C[C@H]1O[C@@H](n2cnc3c(N)ncnc32)[C@H](O)[C@@H]1O (stereo partly shown) [S-adenosyl methionine]
coupled colorimetric SAM methyltransferase assay, 510 nm: Rv1523 MTase was able to transfer methyl group from SAM to the cell wall component
